The values below come from the NIST ThermoML archive (doi:10.1016/j.tca.2010.07.023).

Each structure is given as a SMILES string. Numbers after ± are expanded uncertainties.

Data set [1] in a line: Molar enthalpy of transition or fusion. The note with it: DSC.
For data set [2] the following is noted: DTA.

In the case of `CC12CCC(CC1=O)C2(C)C` (configuration not stated) [1,7,7-trimethylbicyclo[2.2.1]-2-heptanone], the “Molar enthalpy of transition or fusion” value in data set [1] (Crystal 1) is 1.41 ± 0.0717 kcal/mol; in data set [1] (Crystal 2), 0.0406 ± 0.0239 kcal/mol; in data set [1] (Crystal 3), 0.311 ± 0.0717 kcal/mol. In addition, the figures for the Triple point temperature in data set [2] (Crystal 1), in data set [2] (Crystal 2) and in data set [2] (Crystal 3) were 448 ± 1.5 K, 364 ± 5 K and 206.1 ± 1.4 K, respectively.

`CC1(C)[C@@H]2CC[C@@]1(C)C(=O)C2` [d-camphor]: the “Molar enthalpy of transition or fusion” value in data set [1] (Crystal 1) is 1.51 ± 0.12 kcal/mol; in data set [1] (Crystal 2), 0.0382 ± 0.0239 kcal/mol; in data set [1] (Crystal 3), 2.68 ± 0.12 kcal/mol. Besides, the Triple point temperature was 451.8 ± 1.4 K in data set [2] (Crystal 1), 370 ± 4 K in data set [2] (Crystal 2) and 242.7 ± 1.4 K in data set [2] (Crystal 3).
